This note sets out measurements from patent US9567629B2, “Labeled enzyme compositions, methods and systems” (LIFE TECHNOLOGIES CORPORATION, priority 2009, dated 2017).

For test [1], the system named is [enzyme•DNA•nucleotide] ternary complex with AF647-C6-dG6P. The test is described as follows: Stopped-flow measurements of t−1 (nucleotide dissociation from ternary complex). It counts as biochemical. To be noted: 330 nM polymerase, 100 nM duplex, 7 μM AF647-C6-dG6P, chase 50 μM non-labeled dNTP, 2 mM MnCl2. Here is the method:
The stopped-flow techniques for measuring t−1 (1/k−1) followed the techniques described by M. Bakhtina (2009 Biochemistry 48:3197-3208).
The rate of the nucleotide dissociation (k1) from the ternary complex of [enzyme•DNA•nucleotide] was measured in an Applied Photophysics SX20 stopped-flow spectrometer by monitoring changes […] a duplex Alexa fluor 546 dye-labeled-DNA template following the mixing of the [enzyme•DNA•labeled nucleotide] ternary complex with 50 μM cognate non-labeled deoxynucleoside triphosphate in a buffer containing 50 mM Tris-HCl (pH 7.5), 50 mM NaCl, 4 mM DTT, 0.2% BSA, and 2 mM MnCl2.
The ternary complexes were prepared using: 330 nM polymerase, 100 nM template/primer duplex, and 7 μM terminal phosphate-labeled nucleotides (AF647-C6-dG6P).
The averaged stopped-flow fluorescence traces (>1.5 msec) were fitted with a single exponential equation (2) to extrapolate the rate of the nucleotide dissociation (k−1) from the [enzyme•DNA•nucleotide] ternary complex. Fluorescence=A1*e^−k−1*t+C (equation 2) where A1 represents the corresponding fluorescence amplitude, C is an offset constant, and k−1 and the observed rate constants for the fluorescence transition.

In test [2] the test system is dye-labeled primer-template duplex with AF647-C6-dG6P. The test can be described thus: Stopped-flow measurements of tpol (nucleotide incorporation kinetics). Type of test: biochemical. To be noted: 330 nM polymerase, 100 nM template/primer duplex, 7 μM AF647-C6-dG6P, 2 mM MnCl2. The procedure: In this example, the t−1 and tpol values of a Phi-29 polymerase comprising the amino acid sequence of SEQ ID NO: 3 and a B103 polymerase comprising the amino acid sequence of SEQ ID NO: 34 (referred to as “mB103” in the table below) and including amino acid substitutions at various positions were measured using a stopped-flow procedure. The stopped-flow techniques for measuring tpol (1/kpol) followed the techniques described by MP Roettger (2008 Biochemistry 47:9718-9727; M. Bakhtina 2009 Biochemistry 48:3197-320).
The template sequence (SEQ ID NO: 44) further included an Alexa Fluor 546 dye moiety bonded to the 5′ position of the template.
The kinetics of nucleotide incorporation by each polymerase was measured in an Applied Photophysics SX20 stopped-flow spectrometer by monitoring changes in fluorescence from the dye-labeled primer-template duplex complexed to enzyme, following the mixing of the enzyme-DNA complex with dye-labeled nucleotides. […]
The primer and template were annealed to form a dye-labeled primer-template duplex using standard methods. […] The dye-labeled nucleotide AF647-C6-dG6P was then added to a final concentration of 7 μM, and the resulting fluorescence was monitored over time. […]

Turning to “Phi-29 (exo−): exonuclease-minus Phi-29 polymerase (Phi-29 polymerase comprising SEQ ID NO: 3) [reference compound]”, in test [1], the “t−1” value was 27. Also, in test [2], the tpol is 11.
